Laboratory results: US6960692B2, “Diaryl sulfide derivative, addition salt thereof, and immunosuppressant” (Kyorin Pharmaceutical Co., Ltd., priority 2001, dated 2005)

Assays:
male C3H/HeN mice = assay: Ability of test compounds to suppress graft host vs rejection in mice (popliteal lymph node weight); type: in vivo; conditions: right popliteal lymph node weight 4 days after injection of BALB/c stimulation cells
Source text: Ability of Test Compounds to Suppress Graft Host vs Rejection in Mice […] Spleens were collected from 9 to 11 week old male BALB/c mice (CLEA JAPAN Inc., CHARLES RIVER JAPAN Inc., or JAPAN SLC Inc.). The spleens were placed in a phosphate-buffered saline (PBS(-), NISSUI PHARMACEUTICAL Co., Ltd.) or in an RPMI-1640 medium (GIBCO […] Inc., or IWAKI GLASS Co., Ltd.) and were either passed through a stainless steel mesh, or gently pressed between two slide glasses and then passed through a cell strainer (70 μm, Falcon), to form a cell suspension. The suspension was then centrifuged and the supernatant was discarded. An ammonium chloride-Tris isotonic buffer was added to the suspension to lyse erythrocytes. The cells were then centrifuged and washed three times in PBS (-) or RPMI-1640 medium and were resuspended in an RPMI-1640 medium. […] The cells were again centrifuged and washed in PBS (-) or RPMI-1640 medium and were resuspended in an RPMI-1640 medium so that the medium would contain 2.5×10^8 cells/mL. This suspension served as a “stimulation cell suspension.” Using a 27G needle along with a microsyringe (Hamilton), 20 μL (5×10^6 cells/mouse) of the stimulation cell suspension was subcutaneously injected into the right hind footpad of 7 to 9 week old male C3H/HeN mice (CLEA JAPAN Inc., CHARLES RIVER JAPAN Inc., or JAPAN SLC Inc.). […]

male BALB/c mice = assay: Ability of test compounds to suppress delayed-type hypersensitivity in mice (DNFB, ear thickness); type: in vivo; conditions: dose 1 mg/kg orally 30 minutes before DNFB challenge; ear thickness increase 24 hours after the challenge
Description: <Experiment 2> Ability of Test Compounds to Suppress Delayed-Type Hypersensitivity in Mice. […] The sensitization was done for 2 consecutive days (day 0 and day 1). On day 5, the mice were challenged with the antigen to induce delayed-type hypersensitive responses: First, the initial thickness of each ear was measured by the dial thickness gauge G (0.01-10 mm, OZAKI MFG Co., Ltd.) and a test compound was administered. 30 minutes after the administration, 10 μL of a 0.2% (v/v) DNFB solution was applied to the inner and outer surfaces of the right ear of each animal for antigen challenge. The left ear of each animal was challenged with the solvent alone. 24 hours after the challenge, the increase in the ear thickness was measured for each ear and the difference in thickness between the right and the left ears was determined for each individual. The test compound was dissolved, or suspended, in an ultra pure water and was orally administered at a dose of 0.1 mL/10 g of body weight. A control group was administered ultra pure water alone.

Compound	Inhibition (%) (male C3H/HeN mice; dose 0.3 mg/kg intraperitoneally once a day for four consecutive days)	melting point [°C]	Inhibition (%) (male C3H/HeN mice; dose 0.03 mg/kg intraperitoneally once a day for four consecutive days)	Inhibition (%) (male BALB/c mice)
Cl.NC(CO)(CO)CCc1ccc(Sc2cccc(OCc3ccccc3)c2)cc1Cl [Example 46, 2-amino-2-[4-(3-benzyloxyphenylthio)-2-chlorophenyl]ethyl-1,3-propanediol Hydrochloride]	80			
Cl.NC(CO)(CO)CCCc1ccc(Sc2cccc(OCc3ccccc3)c2)cc1Cl [Example 36, 2-amino-2-[4-(3-benzyloxyphenylthio)-2-chlorophenyl]propyl-1,3-propanediol hydrochloride]		132 to 133	85	86
